In patent US9801901B2, “Alginate oligomers for use in overcoming multidrug resistance in bacteria” (priority 2009, dated 2017):
Converted amounts (≈) assume the structure as drawn. Read-outs that look alike come from different tables or passages of the source. Marks after values point to notes of the source that are not given here.

Columns and labels:
[1] = tested on: Acinetobacter baumannii MDR ACB from Libya (V4); assay: MIC assay, CAMHB with alginate oligomer, no visible growth; type: cell-based; settings: for MIC: Acinetobacter baumannii, read-out: MIC
Source text: (§1) The study described in Example 1 was repeated with the following strains of bacteria and antibiotics as detailed in Tables 4, 5 and 6.
The study described in Example 1 was repeated with the following strains of Acinetobacter baumannii, antibiotics and M-block alginate oligomer in place of OligoG CF-5/20 as detailed in Table 7. The M-block oligomer is 100% M with a DPn of 15 to 18,

[2] = tested on: strains of Klebsiella pneumoniae displaying MDR phenotypes; assay: MIC-assay, Mueller-Hinton broth with G-block alginate, 384-well, OD600 (Table 10); type: cell-based; settings: read-out: MIC
Source text: Minimum inhibitory concentration (MICs) of different antibiotics for strains of Klebsiella pneumoniae displaying MDR phenotypes in the presence of varying concentrations of OligoCF-5/20 (0-10%). (MIC values are expressed in μg ml^−1).

V22 6056 Acinetobacter = assay: MIC assay, CAMHB with alginate oligomer, no visible growth; type: cell-based, Acinetobacter lwoffii; settings: Table 5, V22 MDR Acin. lwoff
[3] = tested on: Acinetobacter baumannii (MDR ACB, Libya, V4); assay: MIC-assay, Mueller-Hinton broth with G-block alginate, 384-well, OD600
[4] = tested on: Burkholderia cepacia (LMG18941, ATCC-BAA-246); assay: as above
[5] = tested on: V12 5725 (Wales) Klebsiella pneumoniae; assay: MIC assay, CAMHB with alginate oligomer, no visible growth; type: cell-based; settings: Table 5, V12 MDR Kleb pneu
[6] = tested on: Pseudomonas aeruginosa MDR R22 from China (V1); assay: as above; type: cell-based; settings: for MIC: Pseudomonas aeruginosa, Table 1, V1 MDR R22 PA, read-out: MIC
Source text: as §1

V11 5702 (Wales) E. coli = assay: as above; type: cell-based; settings: Table 5, V11 MDR E.coli
Streptococcus oralis = assay: MIC-assay, Mueller-Hinton broth with G-block alginate, 384-well, OD600 (Table 12); type: cell-based; settings: Streptococcus oralis (5610, V17) MDR
Source text: (§2) Minimum inhibitory concentration (MICs) of different antibiotics for strains of Streptococcus oralis and Staphylococcus aureus (MRSA) displaying MDR phenotypes in the presence of varying concentrations of OligoCF-5/20 (0-10%). (MIC values are expressed in μg ml^−1).

[7] = tested on: Staphylococcus aureus (MRSA) U50; assay: as above; type: cell-based; settings: MRSA 1040s, U50 MDR, read-out: MIC
Source text: as §2

[8] = tested on: strains of E. coli displaying MDR phenotypes; assay: MIC-assay, Mueller-Hinton broth with G-block alginate, 384-well, OD600 (Table 11); type: cell-based; settings: Escherichia coli, Escherichia coli (5702, Wales, V11) MDR, read-out: MIC
Source text: Minimum inhibitory concentration (MICs) of different antibiotics for strains of E. coli and Providencia stuartii displaying MDR phenotypes in the presence of varying concentrations of OligoCF-5/20 (0-10%). (MIC values are expressed in μg ml^−1).

[9] = tested on: Acinetobacter lwoffii (Egypt, V10); assay: MIC-assay, Mueller-Hinton broth with G-block alginate, 384-well, OD600
[10] = Table 1, V4 ACB (Libya), OligoCF-5/20 0G
[11] = Table 1, V4 ACB (Libya), OligoCF-5/20 +2% G
[12] = Table 1, V4 ACB (Libya), OligoCF-5/20 +6% G
[13] = Table 1, V4 ACB (Libya), OligoCF-5/20 +10% G
[14] = Table 7, V4 MDR Acin baum (Libya), M-block oligomer 0M
[15] = Table 7, V4 MDR Acin baum (Libya), M-block oligomer +2% M
[16] = Table 7, V4 MDR Acin baum (Libya), M-block oligomer +6% M
[17] = Acinetobacter, OligoCF-5/20 0G, read-out: MIC
[18] = Table 9, G-block (OligoCF-5/20) 0%
[19] = Table 9, G-block (OligoCF-5/20) 2%
[20] = Table 9, G-block (OligoCF-5/20) 6%
[21] = Table 9, G-block (OligoCF-5/20) 10%
[22] = Klebsiella pneumoniae, OligoCF-5/20 0G, read-out: MIC

Compound O=C(O)c1cn(C2CC2)c2cc(N3CCNCC3)c(F)cc2c1=O [Ciprofloxacin] has an MIC [1, 10] of 64 µg/mL (≈ 193 µM), an MIC [1, 11] of 32 µg/mL (≈ 96.6 µM) and an MIC [1, 12] of 16 µg/mL (≈ 48.3 µM). For the same compound, the MIC [1, 13] was 16 µg/mL (≈ 48.3 µM), the MIC [1, 14] was 64 µg/mL (≈ 193 µM) and the MIC [1, 15] was 64 µg/mL (≈ 193 µM). For the same compound, the MIC [1, 16] was 64 µg/mL (≈ 193 µM), the “effect in combination with alginate oligomers” value ([1]; Example 1, Acinetobacter baumannii isolate) was “more positive effect” and the “change of MIC in combination with azithromycin by alginate oligomer” value ([1]; Table 3, MDR Acinetobacter baumannii isolate) was “reduced”. It also gave an MIC ([2]; Klebsiella pneumoniae (5712, Wales, V12) MDR, G-block (OligoCF-5/20) 0%) greater than 8 µg/mL, an MIC ([2]; Klebsiella pneumoniae (5712, Wales, V12) MDR, G-block (OligoCF-5/20) 2%) greater than 8 µg/mL and an MIC ([2]; Klebsiella pneumoniae (5712, Wales, V12) MDR, G-block (OligoCF-5/20) 6%) greater than 8 µg/mL. The MIC ([2]; Klebsiella pneumoniae (5712, Wales, V12) MDR, G-block (OligoCF-5/20) 10%) was greater than 8 µg/mL, the MIC ([2]; Klebsiella pneumoniae (IR25, India, V6) MDR, G-block (OligoCF-5/20) 2%) was 64 µg/mL (≈ 193 µM) and the MIC ([2]; Klebsiella pneumoniae (IR25, India, V6) MDR, G-block (OligoCF-5/20) 6%) was 64 µg/mL (≈ 193 µM). The MIC ([2]; Klebsiella pneumoniae (IR25, India, V6) MDR, G-block (OligoCF-5/20) 10%) was 64 µg/mL (≈ 193 µM), the MIC ([2]; Klebsiella pneumoniae (K3, India, V8) MDR, G-block (OligoCF-5/20) 0%) was 32 µg/mL (≈ 96.6 µM) and the MIC ([2]; Klebsiella pneumoniae (K3, India, V8) MDR, G-block (OligoCF-5/20) 2%) was 32 µg/mL (≈ 96.6 µM). It also gave an MIC ([2]; Klebsiella pneumoniae (K3, India, V8) MDR, G-block (OligoCF-5/20) 6%) greater than 1020 µg/mL, an MIC ([2]; Klebsiella pneumoniae (K3, India, V8) MDR, G-block (OligoCF-5/20) 10%) greater than 1020 µg/mL and an MIC (V22 6056 Acinetobacter; [17]) of less than 0.25 µg/mL. The MIC [3, 18] was 4 µg/mL (≈ 12.1 µM), the MIC [3, 19] was 1 µg/mL (≈ 3.02 µM) and the MIC [3, 20] was 1 µg/mL (≈ 3.02 µM). The MIC [3, 21] was 0.5 µg/mL (≈ 1.51 µM), the MIC ([4]; ATCCBAA246|LMG18941, Table 8, G-block (OligoCF-5/20) 0%) was greater than 8 µg/mL and the MIC ([4]; ATCCBAA246|LMG18941, Table 8, G-block (OligoCF-5/20) 2%) was greater than 8 µg/mL. The MIC ([4]; ATCCBAA246|LMG18941, Table 8, G-block (OligoCF-5/20) 6%) was greater than 8 µg/mL, the MIC ([4]; ATCCBAA246|LMG18941, Table 8, G-block (OligoCF-5/20) 10%) was greater than 8 µg/mL and the MIC [5, 22] was 64 µg/mL (≈ 193 µM). The MIC ([5]; OligoCF-5/20 +2% G) was 64 µg/mL (≈ 193 µM), the MIC ([5]; OligoCF-5/20 +6% G) was 256^‡ μg/ml and the MIC ([5]; OligoCF-5/20 +10% G) was 256^‡ μg/ml. For the same compound, the MIC ([6]; OligoCF-5/20 0G) was 16 µg/mL (≈ 48.3 µM), the MIC ([6]; OligoCF-5/20 +2% G) was 16 µg/mL (≈ 48.3 µM) and the MIC ([6]; OligoCF-5/20 +6% G) was 8 µg/mL (≈ 24.1 µM). For the same compound, the MIC ([6]; OligoCF-5/20 +10% G) was 4 µg/mL (≈ 12.1 µM), the “change of MIC in combination with azithromycin by alginate oligomer” value ([6]; Table 3, MDR R22 PA strain) was “reduced” and the MIC (V11 5702 (Wales) E. coli; OligoCF-5/20 +2% G) was 64^† μg/ml. The MIC (Streptococcus oralis; G-block (OligoCF-5/20) 0%, read-out: MIC) was 32 µg/mL (≈ 96.6 µM), the MIC (Streptococcus oralis; G-block (OligoCF-5/20) 2%) was less than 0.0625 µg/mL and the MIC (Streptococcus oralis; G-block (OligoCF-5/20) 6%, read-out: MIC) was 2 µg/mL (≈ 6.04 µM). For the same compound, the MIC (Streptococcus oralis; G-block (OligoCF-5/20) 10%, read-out: MIC) was 2 µg/mL (≈ 6.04 µM), the MIC ([7]; G-block (OligoCF-5/20) 0%) was 32 µg/mL (≈ 96.6 µM) and the MIC ([7]; G-block (OligoCF-5/20) 2%) was 32 µg/mL (≈ 96.6 µM). For the same compound, the MIC ([7]; G-block (OligoCF-5/20) 6%) was greater than 1020 µg/mL, the MIC ([7]; G-block (OligoCF-5/20) 10%) was greater than 1020 µg/mL and the MIC ([8]; G-block (OligoCF-5/20) 0%) was greater than 8 µg/mL. For the same compound, the MIC ([8]; G-block (OligoCF-5/20) 2%) was greater than 8 µg/mL, the MIC ([8]; G-block (OligoCF-5/20) 6%) was greater than 8 µg/mL and the MIC ([8]; G-block (OligoCF-5/20) 10%) was greater than 8 µg/mL. For the same compound, the MIC [9, 18] was 0.063 µg/mL (≈ 0.19 µM), the MIC [9, 19] was 0.031 µg/mL (≈ 0.0936 µM) and the MIC [9, 20] was 0.031 µg/mL (≈ 0.0936 µM). For the same compound, the MIC [9, 21] was 0.031 µg/mL (≈ 0.0936 µM).
C[C@@H](O)[C@H]1C(=O)N2C(C(=O)O)=C(S[C@@H]3CN[C@H](C(=O)N(C)C)C3)[C@H](C)[C@H]12 [Meropenem] gave an MIC [1, 10] of less than 4 µg/mL, an MIC [1, 11] of less than 4 µg/mL and an MIC [1, 12] of less than 4 µg/mL. It also gave an MIC [1, 13] of less than 4 µg/mL, an MIC [1, 14] of 16 µg/mL (≈ 41.7 µM) and an MIC [1, 15] of 32 µg/mL (≈ 83.4 µM). For the same compound, the MIC [1, 16] was 16 µg/mL (≈ 41.7 µM), the MIC ([1]; Table 7, V4 MDR Acin baum (Libya), M-block oligomer +10% M) was 8 µg/mL (≈ 20.9 µM) and the MIC (V22 6056 Acinetobacter; [17]) was 256 µg/mL (≈ 668 µM). For the same compound, the MIC (V22 6056 Acinetobacter; OligoCF-5/20 +10% G) was 64^† μg/ml, the MIC [5, 22] was less than 0.25 µg/mL and the MIC ([5]; OligoCF-5/20 +2% G) was less than 0.25 µg/mL. The MIC ([5]; OligoCF-5/20 +6% G) was less than 0.25 µg/mL, the MIC ([5]; OligoCF-5/20 +10% G) was less than 0.25 µg/mL and the MIC ([6]; OligoCF-5/20 0G) was 32 µg/mL (≈ 83.4 µM). It also gave an MIC ([6]; OligoCF-5/20 +2% G) of 32 µg/mL (≈ 83.4 µM), an MIC ([6]; OligoCF-5/20 +6% G) of 16 µg/mL (≈ 41.7 µM) and an MIC ([6]; OligoCF-5/20 +10% G) of 4 µg/mL (≈ 10.4 µM). It also gave an MIC (V11 5702 (Wales) E. coli; Escherichia coli, OligoCF-5/20 0G, read-out: MIC) of less than 0.25 µg/mL, an MIC (V11 5702 (Wales) E. coli; OligoCF-5/20 +2% G) of less than 0.25 µg/mL and an MIC (V11 5702 (Wales) E. coli; OligoCF-5/20 +6% G) of less than 0.25 µg/mL. The MIC (V11 5702 (Wales) E. coli; OligoCF-5/20 +10% G) was less than 0.25 µg/mL.
